According to patent publication US7879836B2, “Pharmaceutical composition comprising a 1-(3-chlorophenyl)-3-alkylpiperazine for treating appetite disorder” (Aziende Chimiche Riunite Angelini Francesco A.C.R.A.F. …, priority 2005, dated 2011):

Columns and labels:
[1] = tested on: food-deprived rats; assay: Hypophagia-inducing activity in food-deprived rats; format: in vivo, rat; conditions: 10 mg/kg orally; rats deprived of food for 24 h; one hour after treatment; FIGS. 2A, 2B
Excerpt: Verification of the consumption of food in food-deprived rats represents a condition that reproduces the complex system regulating the sensation of hunger and the intake of food in humans. Fasting in fact introduces many physiological changes that can lead to activation of the circuits that are specifically dedicated to the control of food intake. As is well known, the use of this model constitutes a valid tool for identifying substances capable of interfering with appetite disorders and can be used in particular for monitoring conditions such as hyperphagia, bulimia and obesity.
Male CD rats weighing 300-350 g were used.
The animals were kept in a room with a controlled cycle of light and darkness (6:00-18:00). Before the test, which was carried out at 9:30 corresponding to daytime, the animals were deprived of food for 24 h. At the end of the fasting period, the animals were treated orally with the test compounds (10 mg/kg) in an aqueous vehicle and, immediately after treatment, a pre-weighed amount of food was made available. One hour after treatment, the food consumption was evaluated by weighing the amount of food remaining. The control animals were treated orally with the vehicle (water) used for administering the test compounds.

[2] = tested on: rat; conditions: Eur J Pharmacol, 1989, 164: 445-54; cited from earlier work
[3] = tested on: Male CD rats; assay: Anxiogenic activity in the rat (test of social interaction); format: in vivo; conditions: intraperitoneal; evaluated after 20 minutes during a 10-minute period; FIG. 1
Excerpt: The anxiogenic activity of the compounds of the present invention was investigated by means of the social interaction test in the rat, which, as is known by a person skilled in the art, represents an experimental model that is predictive of the effects in humans.
Measurement of the time spent by pairs of animals in interacting with one another and exploring their surroundings (usually an arena consisting of a Perspex container) constitutes a model for verifying the action of substances that influence social behaviour.
Male CD rats weighing 150-250 g were used.
The animals were kept in a room with a controlled cycle of light and darkness (6:00-18:00). To promote acclimatization and eliminate responses induced by stress conditions, the rats were handled and were injected daily with the vehicle (water) for the four days preceding administration of the test compounds.
On the fifth day the animals were treated intraperitoneally with the test compounds and, after 20 minutes, the interaction time (seconds) spent by the animals during a 10-minute period was evaluated.

SMILES | amount of food consumed, lower than that consumed by the control animals [1] | anxiogenic effects (social interaction time) [2] | interaction time relative to that of the control animals [3]
CC1CN(c2cccc(Cl)c2)CCN1 (racemic) [Compound 1] | approx. 28% | – | –
C[C@H]1CN(c2cccc(Cl)c2)CCN1 [Compound 2] | 75-80% | – | –
C[C@@H]1CN(c2cccc(Cl)c2)CCN1 [Compound 3] | ~20% | – | –
FC(F)(F)c1cccc(N2CCNCC2)c1 [TFMPP, m-trifluoromethyl phenylpiperazine] | – | reduce social interaction time | –
Clc1cccc(N2CCNCC2)c1 [mCPP, m-chlorophenyl-piperazine] | – | reduce social interaction time | approx. 50%
